Results published in article PMC8008885 (Journal of Enzyme Inhibition and Medicinal Chemistry, 2021).

Tested on: striatum of YAC128 mice
Experiment: Acid histone extraction and Western blot of H3K9 methylation in the striatum of YAC128 mice
Assay type: in vivo, mouse
Conditions: YAC128 mice vs vehicle-treated YAC128 mice
Description: Cells were homogenised with Dounce homogeniser in […] of phosphate-buffered saline containing 0.4 mM sodium butyrate, 5% Triton X-100, 3 mM DTT, 1 mM sodium orthovanadate, 5 mM sodium fluoride, 3 mM PMSF, 3 mM DTT, 0.5 mg/ml leupeptin, and 10 mg/ml aprotinin as previously described. The nuclear pellets were collected and washed twice with the above-described 5% Triton buffer. Histones were extracted by solubilising in […] of 0.2 M HCl on a shaker for 2 h. After neutralising the pH of the acid-extracted solution containing the histone pool with ammonium acetate, the protein content was quantified. […] After releasing the vacuum, the nitrocellulose membrane was removed and washed twice with TBS-T for 5 min. Then, the nitrocellulose membrane was blocked with 5% milk/TBS-T for 30 min and subsequently incubated with primary antibody in 5% milk/TBS-T for 24 h at cold room. The nitrocellulose membrane was washed twice with TBS-T for 5 min and incubated with secondary antibody in 1% milk (15 ml) for one hour at room temperature. […]
YAC128 mice were bred with females from their background strain (B6CBAFI/J), and offspring were genotyped using PCR as previously described. […] The biochemical and behavioural/neuropathological symptoms of mice were determined after 4 weeks of drug administration. […]

Compound: C=CCOc1cccc2nc(N3CCCC3)ccc12 [APQ, 5-allyloxy-2-(pyrrolidin-1-yl)quinoline]
- H3K9me3, H3K9me1 and H3K9me2 levels in the striatum (Western blot): selectively decreased H3K9me3 levels but not H3K9me1 or H3K9me2 levels
